Test system: rats subjected to transient bilateral occlusion of the common carotid artery (BCCA)
Assay: Open field test of exploratory performance after transient bilateral occlusion of the common carotid artery (BCCA)
Assay type: in vivo, rat
Conditions: for Ambulation / Blocks (episodes of interest in blocks) / Defecation / Grooming / Rearing: 60 mg/kg/d s.c. osmotic minipump, open field 5 min, x ± SEM
[1] = BCCA + (6) group, 60 mg/kg/d, 5 days after BCCA
[2] = BCCA + (6): BCCA 30 min, 5 days after BCCA
[3] = Control + (6) group (reference = 100)
[4] = Control + (6): sham-operated Wistar rats

For `O=C(O)CN1C(=O)[C@@H](NC(=O)C2(C[C@@H](CCc3ccccc3)C(=O)O)CCCC2)CCc2ccccc21` [Compound (6), (2R)-2-{[1-({[(3S)-1-(carboxymethyl)-2-oxo-2,3,4,5-tetrahydro-1H-1-benzazepin-3-yl]amino}carbonyl)cyclopentyl]methyl}-4-phenylbutanoic acid], the “Ambulation, % of sham-operated controls” value [1] was 94.81%, the “Blocks (episodes of interest in blocks), % of sham-operated controls” value [1] was 103.80% and the “Defecation, % of sham-operated controls” value [1] was 82.54%. For the same compound, the “Grooming, % of sham-operated controls” value [1] was 112.83%, the “Rearing, % of sham-operated controls” value [1] was 104.62% and the Ambulation [2] was 2741 ± 4.25 (n). For the same compound, the “Blocks (episodes of interest in blocks)” value [2] was 7.64 ± 2.54 (n), the Defecation [2] was 1.04 ± 0.45 (n) and the Grooming [2] was 5.98 ± 1.06 (n). For the same compound, the Rearing [2] was 12.01 ± 3.86 (n), the “Ambulation, % of Control + (6)” value [3] was 100% and the “Blocks, % of Control + (6)” value [3] was 100%. The “Defecation, % of Control + (6)” value [3] was 100%, the “Grooming, % of Control + (6)” value [3] was 100% and the “Rearing, % of Control + (6)” value [3] was 100%. For the same compound, the Ambulation [4] was 28.91 ± 5.13 (n), the “Blocks (episodes of interest in blocks)” value [4] was 7.36 ± 2.85 (n) and the Defecation [4] was 1.26 ± 0.45 (n). The Grooming [4] was 5.30 ± 1.57 (n), the Rearing [4] was 11.48 ± 3.51 (n) and the “Exploratory performance in rats subjected to BCCA” value (open field test, 60 mg/kg/d, result in words, 60 mg/kg/day) was “statistically significant improvement”.
